This is an account of results in PubChem BioAssay AID1963984 (Molecular Pharmacology Branch, DTP, NCI, 2024).
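Further: spheroids exposed to agents for seven days before readout; percent viability relative to DMSO vehicle control taken as 100%.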

The first assay relates to 233499-124-R-J3-PDC spheroids with HUVEC/MSC, viability. Nature of the assay: Anticancer human tumor 233499-124-R-J3-PDC patient-derived colon adenocarcinoma cell line growth inhibition [PI3K]. As to conditions: second compound 0.00316 µM; first compound 3.16 µM; stronger effect = lower value. The essentials: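 Spheroid viability read-out. Co-cultures contained the tumor line plus HUVEC and human MSCs. Each agent was paired with a PI3K inhibitor (inavolisib, alpelisib, duvelisib, copanlisib) across half-log dilutions starting at clinical Cmax, or at 10 microM when Cmax was unknown.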
Broadly, the viability, T/C is the result in the treated group divided by that in the control group, in per cent. In the case of `CC(Cn1ccc(-c2ccc(C#N)c(Cl)c2)n1)NC(=O)c1cc(C(C)O)[nH]n1` (configuration not stated) + COc1c(OCCCN2CCOCC2)ccc2c3n(c(=NC(=O)c4cnc(N)nc4)nc12)CCN3, the viability, T/C was 101%.
On the same count and under the same terms, as for `Cn1nccc1Nc1nccc(-c2ccn(C(CO)c3ccc(Cl)c(F)c3)c(=O)c2)n1` (configuration not stated) + COc1c(OCCCN2CCOCC2)ccc2c3n(c(=NC(=O)c4cnc(N)nc4)nc12)CCN3, the figure is 80.1%.

Still in this assay, the particulars now being: second compound 0.00316 µM; first compound 10 µM; stronger effect = lower value.
For `C=CC(=O)N1CCN(c2nc(=O)n(-c3c(C)ccnc3C(C)C)c3nc(-c4c(O)cccc4F)c(F)cc23)C(C)C1` (configuration not stated) + COc1c(OCCCN2CCOCC2)ccc2c3n(c(=NC(=O)c4cnc(N)nc4)nc12)CCN3, the viability, T/C is 119%.
`CC(Cn1ccc(-c2ccc(C#N)c(Cl)c2)n1)NC(=O)c1cc(C(C)O)[nH]n1` (configuration not stated) + COc1c(OCCCN2CCOCC2)ccc2c3n(c(=NC(=O)c4cnc(N)nc4)nc12)CCN3: the viability, T/C is 96.8%.
On to `Cn1nccc1Nc1nccc(-c2ccn(C(CO)c3ccc(Cl)c(F)c3)c(=O)c2)n1` (configuration not stated) + COc1c(OCCCN2CCOCC2)ccc2c3n(c(=NC(=O)c4cnc(N)nc4)nc12)CCN3, for which the viability, T/C is 70.1%.

Still in this assay, the particulars now being: second compound 0.01 µM; first compound 0.0316 µM; stronger effect = lower value.
Take `C=CC(=O)N1CCN(c2nc(=O)n(-c3c(C)ccnc3C(C)C)c3nc(-c4c(O)cccc4F)c(F)cc23)C(C)C1` (configuration not stated) + COc1c(OCCCN2CCOCC2)ccc2c3n(c(=NC(=O)c4cnc(N)nc4)nc12)CCN3: the viability, T/C is 109%.
With `CC(Cn1ccc(-c2ccc(C#N)c(Cl)c2)n1)NC(=O)c1cc(C(C)O)[nH]n1` (configuration not stated) + COc1c(OCCCN2CCOCC2)ccc2c3n(c(=NC(=O)c4cnc(N)nc4)nc12)CCN3, the viability, T/C is 91.7%.
Consider `Cn1nccc1Nc1nccc(-c2ccn(C(CO)c3ccc(Cl)c(F)c3)c(=O)c2)n1` (configuration not stated) + COc1c(OCCCN2CCOCC2)ccc2c3n(c(=NC(=O)c4cnc(N)nc4)nc12)CCN3, for which the viability, T/C was 90%.

The assay is the same for the next values; noted with them: second compound 0.01 µM; first compound 0.1 µM; stronger effect = lower value.
In the case of `C=CC(=O)N1CCN(c2nc(=O)n(-c3c(C)ccnc3C(C)C)c3nc(-c4c(O)cccc4F)c(F)cc23)C(C)C1` (configuration not stated) + COc1c(OCCCN2CCOCC2)ccc2c3n(c(=NC(=O)c4cnc(N)nc4)nc12)CCN3, the viability, T/C is 101%.
The same measure, in the same setting: the value for `CC(Cn1ccc(-c2ccc(C#N)c(Cl)c2)n1)NC(=O)c1cc(C(C)O)[nH]n1` (configuration not stated) + COc1c(OCCCN2CCOCC2)ccc2c3n(c(=NC(=O)c4cnc(N)nc4)nc12)CCN3 was 98.2%; that for `Cn1nccc1Nc1nccc(-c2ccn(C(CO)c3ccc(Cl)c(F)c3)c(=O)c2)n1` (configuration not stated) + COc1c(OCCCN2CCOCC2)ccc2c3n(c(=NC(=O)c4cnc(N)nc4)nc12)CCN3 was 78.2%.

The same assay, now with this note: second compound 0.01 µM; first compound 0.316 µM; stronger effect = lower value.
As for `C=CC(=O)N1CCN(c2nc(=O)n(-c3c(C)ccnc3C(C)C)c3nc(-c4c(O)cccc4F)c(F)cc23)C(C)C1` (configuration not stated) + COc1c(OCCCN2CCOCC2)ccc2c3n(c(=NC(=O)c4cnc(N)nc4)nc12)CCN3, the viability, T/C is 85.5%.
Consider `CC(Cn1ccc(-c2ccc(C#N)c(Cl)c2)n1)NC(=O)c1cc(C(C)O)[nH]n1` (configuration not stated) + COc1c(OCCCN2CCOCC2)ccc2c3n(c(=NC(=O)c4cnc(N)nc4)nc12)CCN3, for which the viability, T/C is 73.9%.
As to `Cn1nccc1Nc1nccc(-c2ccn(C(CO)c3ccc(Cl)c(F)c3)c(=O)c2)n1` (configuration not stated) + COc1c(OCCCN2CCOCC2)ccc2c3n(c(=NC(=O)c4cnc(N)nc4)nc12)CCN3, the viability, T/C was 67.7%.

Still in this assay, the particulars now being: second compound 0.01 µM; first compound 1 µM; stronger effect = lower value.
On to `C=CC(=O)N1CCN(c2nc(=O)n(-c3c(C)ccnc3C(C)C)c3nc(-c4c(O)cccc4F)c(F)cc23)C(C)C1` (configuration not stated) + COc1c(OCCCN2CCOCC2)ccc2c3n(c(=NC(=O)c4cnc(N)nc4)nc12)CCN3, for which the viability, T/C was 86.5%.
The same measure, in the same setting: as for `CC(Cn1ccc(-c2ccc(C#N)c(Cl)c2)n1)NC(=O)c1cc(C(C)O)[nH]n1` (configuration not stated) + COc1c(OCCCN2CCOCC2)ccc2c3n(c(=NC(=O)c4cnc(N)nc4)nc12)CCN3, the figure is 102%; as for `Cn1nccc1Nc1nccc(-c2ccn(C(CO)c3ccc(Cl)c(F)c3)c(=O)c2)n1` (configuration not stated) + COc1c(OCCCN2CCOCC2)ccc2c3n(c(=NC(=O)c4cnc(N)nc4)nc12)CCN3, 78.3%.

Still in this assay, the particulars now being: second compound 0.01 µM; first compound 3.16 µM; stronger effect = lower value.
Consider `C=CC(=O)N1CCN(c2nc(=O)n(-c3c(C)ccnc3C(C)C)c3nc(-c4c(O)cccc4F)c(F)cc23)C(C)C1` (configuration not stated) + COc1c(OCCCN2CCOCC2)ccc2c3n(c(=NC(=O)c4cnc(N)nc4)nc12)CCN3, for which the viability, T/C is 84.6%.
On the same count and under the same terms, the value for `CC(Cn1ccc(-c2ccc(C#N)c(Cl)c2)n1)NC(=O)c1cc(C(C)O)[nH]n1` (configuration not stated) + COc1c(OCCCN2CCOCC2)ccc2c3n(c(=NC(=O)c4cnc(N)nc4)nc12)CCN3 was 98%; that for `Cn1nccc1Nc1nccc(-c2ccn(C(CO)c3ccc(Cl)c(F)c3)c(=O)c2)n1` (configuration not stated) + COc1c(OCCCN2CCOCC2)ccc2c3n(c(=NC(=O)c4cnc(N)nc4)nc12)CCN3 was 67%.

The assay is the same for the next values; noted with them: second compound 0.01 µM; first compound 10 µM; stronger effect = lower value.
`C=CC(=O)N1CCN(c2nc(=O)n(-c3c(C)ccnc3C(C)C)c3nc(-c4c(O)cccc4F)c(F)cc23)C(C)C1` (configuration not stated) + COc1c(OCCCN2CCOCC2)ccc2c3n(c(=NC(=O)c4cnc(N)nc4)nc12)CCN3: the viability, T/C is 113%.
Take `CC(Cn1ccc(-c2ccc(C#N)c(Cl)c2)n1)NC(=O)c1cc(C(C)O)[nH]n1` (configuration not stated) + COc1c(OCCCN2CCOCC2)ccc2c3n(c(=NC(=O)c4cnc(N)nc4)nc12)CCN3: the viability, T/C was 86.5%.
On the same count and under the same terms, as for `Cn1nccc1Nc1nccc(-c2ccn(C(CO)c3ccc(Cl)c(F)c3)c(=O)c2)n1` (configuration not stated) + COc1c(OCCCN2CCOCC2)ccc2c3n(c(=NC(=O)c4cnc(N)nc4)nc12)CCN3, the figure is 56.3%.

The assay is the same for the next values; noted with them: second compound 0.0316 µM; first compound 0.0316 µM; stronger effect = lower value.
On to `C=CC(=O)N1CCN(c2nc(=O)n(-c3c(C)ccnc3C(C)C)c3nc(-c4c(O)cccc4F)c(F)cc23)C(C)C1` (configuration not stated) + COc1c(OCCCN2CCOCC2)ccc2c3n(c(=NC(=O)c4cnc(N)nc4)nc12)CCN3, for which the viability, T/C is 94.1%.
The same measure, in the same setting: the value for `CC(Cn1ccc(-c2ccc(C#N)c(Cl)c2)n1)NC(=O)c1cc(C(C)O)[nH]n1` (configuration not stated) + COc1c(OCCCN2CCOCC2)ccc2c3n(c(=NC(=O)c4cnc(N)nc4)nc12)CCN3 was 86.6%.
On the same count and under the same terms, the value for `Cn1nccc1Nc1nccc(-c2ccn(C(CO)c3ccc(Cl)c(F)c3)c(=O)c2)n1` (configuration not stated) + COc1c(OCCCN2CCOCC2)ccc2c3n(c(=NC(=O)c4cnc(N)nc4)nc12)CCN3 was 92.1%.

The same assay, now with this note: second compound 0.0316 µM; first compound 0.1 µM; stronger effect = lower value.
For the compound `C=CC(=O)N1CCN(c2nc(=O)n(-c3c(C)ccnc3C(C)C)c3nc(-c4c(O)cccc4F)c(F)cc23)C(C)C1` (configuration not stated) + COc1c(OCCCN2CCOCC2)ccc2c3n(c(=NC(=O)c4cnc(N)nc4)nc12)CCN3, the viability, T/C was 98.3%.
Same read-out and setting: as for `CC(Cn1ccc(-c2ccc(C#N)c(Cl)c2)n1)NC(=O)c1cc(C(C)O)[nH]n1` (configuration not stated) + COc1c(OCCCN2CCOCC2)ccc2c3n(c(=NC(=O)c4cnc(N)nc4)nc12)CCN3, the figure is 98.5%; as for `Cn1nccc1Nc1nccc(-c2ccn(C(CO)c3ccc(Cl)c(F)c3)c(=O)c2)n1` (configuration not stated) + COc1c(OCCCN2CCOCC2)ccc2c3n(c(=NC(=O)c4cnc(N)nc4)nc12)CCN3, 75.9%.

Staying with this assay, now noted: second compound 0.0316 µM; first compound 0.316 µM; stronger effect = lower value.
For `C=CC(=O)N1CCN(c2nc(=O)n(-c3c(C)ccnc3C(C)C)c3nc(-c4c(O)cccc4F)c(F)cc23)C(C)C1` (configuration not stated) + COc1c(OCCCN2CCOCC2)ccc2c3n(c(=NC(=O)c4cnc(N)nc4)nc12)CCN3, the viability, T/C was 85.3%.
As for `CC(Cn1ccc(-c2ccc(C#N)c(Cl)c2)n1)NC(=O)c1cc(C(C)O)[nH]n1` (configuration not stated) + COc1c(OCCCN2CCOCC2)ccc2c3n(c(=NC(=O)c4cnc(N)nc4)nc12)CCN3, the viability, T/C is 100%.
Same read-out and setting: as for `Cn1nccc1Nc1nccc(-c2ccn(C(CO)c3ccc(Cl)c(F)c3)c(=O)c2)n1` (configuration not stated) + COc1c(OCCCN2CCOCC2)ccc2c3n(c(=NC(=O)c4cnc(N)nc4)nc12)CCN3, the figure is 70.6%.
